# Experimental data: ChEMBL document CHEMBL6114941, “Recent progress on small molecule TLR4 antagonist against triple-negative breast cancer progression and complications” (2024)
# How the values were obtained:
# Type in all cases: functional
# [1] = test system: MDA-MB-435; assay: Antiproliferative activity against human MDA-MB-435 cells assessed as inhibition of cell growth at 1 nM relative to control
# [2] = test system: Ehrlich; assay: Antitumor activity against mouse Ehrlich cells implanted in BALB/c nude mouse assessed as increase in apoptotic cell death at 5 mg/kg, ip administered once daily for 7 days relative to control; conditions: time 7 day
# [3] = test system: MDA-MB-435; assay: Antiproliferative activity against human MDA-MB-435 cells assessed as inhibition of cell growth at 10 uM in presence of paclitaxel relative to control
smiles,measurement,setting,value
CC(=O)O[C@H]1C(=O)[C@@]2(C)[C@H]([C@H](OC(=O)c3ccccc3)[C@]3(O)C[C@H](OC(=O)[C@H](O)[C@@H](NC(=O)c4ccccc4)c4ccccc4)C(C)=C1C3(C)C)[C@]1(OC(C)=O)CO[C@@H]1C[C@@H]2O [PACLITAXEL],inhibition at 0.001 µM,[1],97%
COc1cc(/C=C/C(=O)/C=C/c2ccc(O)c(OC)c2)ccc1[O-].[Na+],Activity,[2],30%
CCc1ccc(/C=C/C(=O)/C=C(O)/C=C/c2ccc(OC)c(O)c2OC)c(CC)c1O,inhibition at 10 µM,[3],45%
